Earlier results, collected in patent US20260009079A1, “BIOMARKERS OF PREGNANCY LOSS” (The University of Warwick, priority 2022, published 2026).

Test system: bone marrow-derived MSCs
Conditions: given over 3 menstrual cycles; previously reported (Tewary et al., 2020)

## N[C@@H](CC(=O)N1CCn2c(nnc2C(F)(F)F)C1)Cc1cc(F)c(F)cc1F [sitagliptin]
  recruitment of bone marrow-derived MSCs: increases
